From patent US8211947B2, “Composition and method for treating and preventing musculoskeletal and connective tissue disorders” (priority 2008, dated 2012)

Assays:
[1] = natural vitamin K; cited from earlier work
[2] = in fish and flax seed oils; cited from earlier work
rheumatoid arthritis = test: Case study: patient with rheumatoid arthritis treated orally; type: in vivo, human; conditions: same patient, NSAIDs taken during the first 5 weeks of the disease onset
Protocol: This treatment was complemented with the regular practice of moderate physical exercises every 2-3 days, including exercises with weights, the application of cold or hot compresses, relaxation techniques, elevation of affected body parts, and at least 8 hours of sleep. Pain was treated with acetaminophen when needed. […] Then, the Omega 3-6-9 supplement was removed from the treatment and 100 mg niacin was added (Rite Aid Corporation, Harrisburg, Pa., USA) once a day during a week, twice a day for another week and 3 times daily for one more week (to a final dose of 300 mg/day). […] They never took DMARDs or steroids.

[3] = test system: undercarboxylated osteocalcin; conditions: healthy subjects, per day; cited from earlier work
osteoarthritis = conditions: subjects with OA, 3 g per day; cited from earlier work

vitamin K
safe dose [1]: up to 15 milligrams per day | solubility [2]: soluble

O=C(O)Cc1ccccc1Nc1c(Cl)cccc1Cl [diclofenac]
benefit of NSAIDs (rheumatoid arthritis): without any significative beneficial result

CC1=C(C/C=C(\C)CCC[C@H](C)CCC[C@H](C)CCCC(C)C)C(=O)c2ccccc2C1=O [vitamin K1, 2-methyl-3-phytyl-1-4-naphthoquinone]
daily intake at which circulating undercarboxylated osteocalcin began to decrease [3]: 300 µg

CC(C)Cc1ccc(C(C)C(=O)O)cc1 (stereo not drawn) [ibuprofen]
benefit of NSAIDs (rheumatoid arthritis): without any significative beneficial result

NC(=O)c1cccnc1 [nicotinamide]
NSAID medication and joint mobility compared with placebo controls (osteoarthritis): reduced their non-steroidal anti-inflammatory (NSAID) medication and increased joint mobility significantly
